Each compound was assayed on AMPK (assay: AMPK activation assay (enzyme-linked immunosorbent assay)).
Type: cell-based
Procedure: Compounds were assayed for their ability to activate AMPK using an enzyme-linked immunosorbent assay. Reagents and procedures for measuring AMPK activation are well known and kits for AMPK activation assays are commercially available.

Row | Structure (SMILES) | EC50 [nM]
1 | N#Cc1ccc(CN2CCC(NC(=O)c3ccc(C(=O)N4CCN(c5ccc(C(=O)C(F)(F)F)cc5)CC4)cn3)CC2)cc1 [Compound 263, N-(1-(4-cyanobenzyl)piperidin-4-yl)-5-(4-(4-(2,2,2-trifluoroacetyl)phenyl)piperazine-1-carbonyl)picolinamide] | < 500
2 | N#Cc1ccc(CN2CCC(NC(=O)c3ccc(C(=O)N4CCN(CC5CCCCC5)CC4)cn3)CC2)cc1 [Compound 95, N-(1-(4-cyanobenzyl)piperidin-4-yl)-5-(4-(cyclohexylmethyl)piperazine-1-carbonyl)picolinamide] | < 500
3 | O=C(c1ccc(C(=O)N2CCN(Cc3ccc(F)cc3)CC2)nc1)N1CCN(Cc2ccc(F)cc2)CC1 [Compound 3, pyridine-2,5-diylbis((4-(4-fluorobenzyl)piperazin-1-yl)methanone)] | 500 to 1000
4 | N#Cc1ccc(CN2CCC(NC(=O)c3ccc(C(=O)N4CCN(c5ccc(S(=O)(=O)C(F)(F)F)cc5)CC4)cn3)CC2)cc1 [Compound 257, N-(1-(4-cyanobenzyl)piperidin-4-yl)-5-(4-(4-(trifluoromethylsulfonyl)phenyl)piperazine-1-carbonyl)picolinamide] | < 500
5 | COc1ccc(C(=O)C2CCN(C(=O)c3ccc(C(=O)Nc4ccc(Oc5ccc(F)cc5)nc4)cn3)CC2)cc1 [Compound 325, N-(6-(4-fluorophenoxy)pyridin-3-yl)-6-(4-(4-methoxybenzoyl)piperidine-1-carbonyl)nicotinamide] | < 500
6 | Cc1ccc(CC2CCN(C(=O)c3ccc(C(=O)NC4CCN(Cc5ccc(C#N)cc5)CC4)nc3)CC2)cc1 [Compound 145, N-(1-(4-cyanobenzyl)piperidin-4-yl)-5-(4-(4-methylbenzyl)piperidine-1-carbonyl)picolinamide] | < 500
7 | O=C(Nc1ccc(Oc2ccccc2)cc1)c1ccc(C(=O)N2CCN(Cc3ccc(F)cc3)CC2)cn1 [Compound 16, 5-(4-(4-fluorobenzyl)piperazine-1-carbonyl)-N-(4-phenoxyphenyl)picolinamide] | < 500
8 | N#Cc1ccc(CN2CCC(NC(=O)c3ccc(C(=O)N4CCC(C(F)c5ccc(F)cc5)CC4)cn3)CC2)cc1 (stereo not shown) [Compound 138, N-(1-(4-cyanobenzyl)piperidin-4-yl)-5-(4-(fluoro(4-fluorophenyl)methyl)piperidine-1-carbonyl)picolinamide] | < 500
9 | COc1ccc(-c2ccc(Nc3ccc(C(=O)NC4CCN(Cc5ccccc5)CC4)nc3)cc2)cc1 [Compound 120, N-(1-benzylpiperidin-4-yl)-5-(4′-methoxybiphenyl-4-ylamino)picolinamide] | > 10000
10 | CS(=O)(=O)c1ccc(C(=O)C2CCN(C(=O)c3ccc(C(=O)NC4CCN(Cc5ccc(C#N)cc5)CC4)nc3)CC2)cc1 [Compound 228, N-(1-(4-cyanobenzyl)piperidin-4-yl)-5-(4-(4-(methylsulfonyl)benzoyl)piperidine-1-carbonyl)picolinamide] | < 500
11 | N#Cc1ccc(CN2CCC(NC(=O)c3ccc(NC4CCN(c5ccc(C#N)cc5)CC4)cn3)CC2)cc1 [Compound 267, N-(1-(4-cyanobenzyl)piperidin-4-yl)-5-(1-(4-cyanophenyl)piperidin-4-ylamino)picolinamide] | < 500
12 | O=C(NCc1ccccc1)c1ccc(C(=O)N2CCN(Cc3ccccc3)CC2)cn1 [Compound 116, N-benzyl-5-(4-benzylpiperazine-1-carbonyl)picolinamide] | 1000 to 5000
13 | COc1ccc(CN2CCC(NC(=O)c3ccc(C(=O)N4CCC(Oc5ccc(C#N)cc5)CC4)cn3)CC2)cc1 [Compound 162, 5-(4-(4-cyanophenoxy)piperidine-1-carbonyl)-N-(1-(4-methoxybenzyl)piperidin-4-yl)picolinamide] | < 500
14 | O=C(N[C@@H]1CCN(Cc2ccc(Cl)cc2)C[C@@H]1F)c1ccc(C(=O)N2CCN(Cc3ccc(F)cc3)CC2)cn1 (relative stereo) [Compound 127, N-(cis-1-(4-chlorobenzyl)-3-fluoropiperidin-4-yl)-5-(4-(4-fluorobenzyl)piperazine-1-carbonyl)picolinamide] | < 500
15 | N#Cc1ccc(O[C@H]2CC[C@@H](NC(=O)c3ccc(C(=O)N4CCC(Oc5ccc(C(F)(F)F)cc5)CC4)cn3)CC2)cc1F [Compound 199, N-((cis)-4-(4-cyano-3-fluorophenoxy)cyclohexyl)-5-(4-(4-(trifluoromethyl)phenoxy)piperidine-1-carbonyl)picolinamide] | < 500
16 | COc1ccc(C(=O)C2CCN(C(=O)c3ccc(C(=O)NC4CCC(Oc5ccc(C#N)cc5)CC4)cn3)CC2)cc1 (stereo not shown) [Compound 315, N-((1s,4s)-4-(4-cyanophenoxy)cyclohexyl)-6-(4-(4-methoxybenzoyl)piperidine-1-carbonyl)nicotinamide] | < 500
17 | CS(=O)(=O)c1ccc(OC2CCN(C(=O)c3cnc(C(=O)Nc4ccc(Oc5ccc(F)cc5)nc4)cn3)CC2)cc1 [Compound 207, N-(6-(4-fluorophenoxy)pyridin-3-yl)-5-(4-(4-(methylsulfonyl)phenoxy)piperidine-1-carbonyl)pyrazine-2-carboxamide] | < 500
18 | N#Cc1ccc(CN2CCC(NC(=O)c3ccc(C(=O)N4CCC(Oc5cccc(C#N)c5)CC4)cn3)CC2)cc1 [Compound 155, N-(1-(4-cyanobenzyl)piperidin-4-yl)-5-(4-(3-cyanophenoxy)piperidine-1-carbonyl)picolinamide] | < 500
19 | N#Cc1ccc(CN2CC[C@@H](NC(=O)c3ccc(C(=O)N4CCN(Cc5ccc(F)cc5)CC4)cn3)[C@@H](F)C2)cc1 [Compound 100] | < 500
20 | N#Cc1ccc(CN2CCC(NC(=O)c3ccc(NC4CCN(c5ccc(F)cc5)CC4)cn3)CC2)cc1 [Compound 276, N-(1-(4-cyanobenzyl)piperidin-4-yl)-5-(1-(4-fluorophenyl)piperidin-4-ylamino)picolinamide] | < 500
21 | N#Cc1ccc(CN2CCC(NC(=O)c3ccc(C(=O)N4CCC(C(=O)c5ccc(F)cc5)CC4)cn3)CC2)cc1 [Compound 136, N-(1-(4-cyanobenzyl)piperidin-4-yl)-5-(4-(4-fluorobenzoyl)piperidine-1-carbonyl)picolinamide] | < 500
22 | N#Cc1ccc(CN2CCC(NC(=O)c3ccc(C(=O)N4CCC(Oc5ccncc5)CC4)cn3)CC2)cc1 [Compound 269, N-(1-(4-cyanobenzyl)piperidin-4-yl)-5-(4-(pyridin-4-yloxy)piperidine-1-carbonyl)picolinamide] | < 500
23 | N#Cc1ccc(O[C@H]2CC[C@@H](NC(=O)c3ccc(C(=O)N4CCC(Oc5ccc(F)cc5)CC4)cn3)CC2)cc1 [Compound 167, N-((cis)-4-(4-cyanophenoxy)cyclohexyl)-5-(4-(4-fluorophenoxy)piperidine-1-carbonyl)picolinamide] | < 500

The next lines start with the values.

Row | EC50 [nM] | Structure (SMILES)
24 | < 500 | CC(C)(C)OC(=O)N1CCC(NC(=O)c2ccc(C(=O)N3CCC(Oc4ccc(C#N)cc4)CC3)nc2)CC1 [Compound 333, tert-butyl 4-(6-(4-(4-cyanophenoxy)piperidine-1-carbonyl)nicotinamido) piperidine-1-carboxylate]
25 | < 500 | O=C(NC1CCN(Cc2ccc(OC(F)(F)F)cc2)CC1)c1ccc(C(=O)N2CCC(Oc3cccc(NC(=O)C4CC4)c3)CC2)nc1 [Compound 438, 6-(4-(3-(cyclopropanecarboxamido)phenoxy)piperidine-1-carbonyl)-N-(1-(4-(trifluoromethoxy)benzyl)piperidin-4-yl)nicotinamide]
26 | < 500 | COc1ccc(N2CCC(NC(=O)c3ccc(C(=O)N4CCN(Cc5ccc(F)cc5)CC4)nc3)CC2)cc1 [Compound 405, 6-(4-(4-fluorobenzyl)piperazine-1-carbonyl)-N-(1-(4-methoxyphenyl)piperidin-4-yl) nicotinamide]
27 | 1000 to 5000 | N#Cc1ccc(CN2CCC(NC(=O)c3ccc(C(=O)N4CCC(Oc5ccc(NS(=O)(=O)C6CC6)cc5)CC4)nc3)CC2)cc1 [Compound 448, N-(1-(4-cyanobenzyl)piperidin-4-yl)-6-(4-(4-(cyclopropanesulfonamido)phenoxy)piperidine-1-carbonyl)nicotinamide]
28 | < 500 | N#Cc1ccc(Oc2ccc(NC(=O)c3ccc(C(=O)N4CCC(Oc5ccc(S(F)(F)(F)(F)F)cc5)CC4)nc3)cn2)cc1 [Compound 497, N-(6-(4-cyanophenoxy)pyridin-3-yl)-6-(4-(4-(pentafluorosulfanyl)phenoxy)piperidine-1-carbonyl)nicotinamide]
29 | < 500 | O=C(NC1CCN(Cc2ccc(F)cc2)CC1)c1ccc(C(=O)N2CCC(C(=O)c3ccc(N4CCCC4)cc3)CC2)nc1 [Compound 381, N-(1-(4-fluorobenzyl)piperidin-4-yl)-6-(4-(4-(pyrrolidin-1-yl)benzoyl)piperidine-1-carbonyl)nicotinamide]
30 | < 500 | N#Cc1ccc(CN2CCC(NC(=O)c3ccc(C(=O)N4CCC(Oc5ccc(NC(=O)C6CC6)cc5)CC4)nc3)CC2)cc1 [Compound 409, N-(1-(4-cyanobenzyl)piperidin-4-yl)-6-(4-(4-(cyclopropanecarboxamido)phenoxy)piperidine-1-carbonyl)nicotinamide]
31 | 1000 to 5000 | COc1ccc(C(=O)C2CCN(C(=O)c3ccc(C(=O)Nc4ccc(S(=O)(=O)c5ccc(F)cc5)nc4)cn3)CC2)cc1 [Compound 467, N-(6-(4-fluorophenylsulfonyl)pyridin-3-yl)-6-(4-(4-methoxybenzoyl)piperidine-1-carbonyl)nicotinamide]
32 | < 500 | COc1ccc(C(=O)C2CCN(C(=O)c3ccc(C(=O)Nc4ccc(Oc5ccc(S(C)(=O)=O)cc5)nc4)cn3)CC2)cc1 [Compound 465, 6-(4-(4-methoxybenzoyl)piperidine-1-carbonyl)-N-(6-(4-(methylsulfonyl)phenoxy)pyridin-3-yl)nicotinamide]
33 | < 500 | N#Cc1ccc(CN2CCC(NC(=O)c3ccc(C(=O)N4CCC(C(=O)c5ccc(N6CCCC6)cc5)CC4)cn3)CC2)cc1 [Compound 365, N-(1-(4-cyanobenzyl)piperidin-4-yl)-5-(4-(4-(pyrrolidin-1-yl)benzoyl)piperidine-1-carbonyl)picolinamide]
34 | 500 to 1000 | CC(=O)Nc1ccc(OC2CCN(C(=O)c3ccc(C(=O)NC4CCN(Cc5cccc(OC(F)(F)F)c5)CC4)cn3)CC2)cc1 [Compound 428, 6-(4-(4-acetamidophenoxy)piperidine-1-carbonyl)-N-(1-(3-(trifluoromethoxy)benzyl)piperidin-4-yl)nicotinamide]

Reference: patent publication US20150087673A1, “METHODS FOR USING AND BIOMARKERS FOR AMPK-ACTIVATING COMPOUNDS” (RIGEL PHARMACEUTICALS, INC., priority 2013, published 2015)
